Measurements taken from US20110112100A1, “Hepatitis C Virus Inhibitors” (priority 2009, published 2011).
Counter-ions that a name gives are not always drawn. Like-named read-outs stand apart in the source and are kept apart here.

Tests used:
1b (con1) replicon cells = experiment: HCV 1b replicon inhibitory activity (luciferase, Britelite Plus); format: cell-based, hepatitis C virus; details: read-out: IC50 value (95% Confidence Intervals) pM Replicon 1B assay
Protocol: (§1) Test compounds were solubilised to 4 mM in 100% DMSO. Dilutions were made to the desired starting concentration in 100% DMSO and then 1 in 3 dilutions made, again in 100% DMSO. 0.5 μl of each sample was added to 384-well assay plates. White Lumitrac (Greiner) plates were used for the 1a and 1b replicon assays and black, clear bottomed (Greiner) plates were used for the WST-1 cytotoxity assay.
1b (con1) replicon cells (pFK1389lucubineo/NS3-3′/ET/9B, licensed from Ralf Bartenschlager, University of Heidelberg) were resuspended to a concentration of 1.4×10^5 cells/ml by addition of pre-warmed medium (DMEM+10% FCS). 50 μl of this suspension was added to each well of a 384-well assay plate (Lumitrac, Greiner) already containing 0.5 μl of test compound.
All plates were covered with gas permeable seals and incubated at 37° C., 5% CO2 for 48 hours. After 48 hours, the plate was removed from the incubator and left to cool to room temperature for 15-30 mins. 35 ul of reconstituted Lyophilised Britelite Plus Substrate (PerkinElmer, 6016767) to medium was added to each well. Luminescence was read after 1 min but before 15 mins on an EnVision (Perkin Elmer) plate reader. The half maximal effective concentration (1050) values were calculated by constructing log concentration-response curves for each compound.

1a-H77 replicon cells = experiment: HCV 1a replicon inhibitory activity (Renilla luciferase); format: cell-based, hepatitis C virus; details: read-out: IC50 value (95% Confidence Intervals) pM Replicon 1A assay
Protocol: as §1
1a-H77 replicon cells (licensed from Apath LLC) were resuspended to a concentration of 1.4×10^5 cells/ml by addition of pre-warmed assay medium (Dulbecco's Modified Eagle's Medium (DMEM)+10% fetal calf serum (FCS)). 50 μl of this suspension was added to each well of a 384-well assay plate (Lumitrac, Greiner), already containing 0.5 μl of test compound.
All plates were covered with gas permeable seals and incubated at 37° C., 5% CO2 for 48 hours. After 48 hours, the assay plate was removed from the incubator and left to cool to room temperature for 15 to 30 mins. Medium was removed from the wells and 5 μl 1× lysis buffer (from Promega's Renilla Luciferase assay kit, E2820) was added to each well. The plate was incubated at room temperature for 15 mins then 15 μl 1×Assay Substrate (from the same kit) was added to each well. Luminescence was read immediately using an EnVision (Perkin Elmer) plate reader. The half maximal effective concentration (1050) values were calculated by constructing log concentration-response curves for each compound.

[1] = Hepatitis C virus, geometric mean, 95% confidence intervals in parentheses, 48 hours, medium with 10% FCS
[2] = geometric mean, 95% confidence intervals in parentheses, 48 hours, medium with 10% FCS

| SMILES | IC50 (1b (con1) replicon cells; [1]) [pM] | IC50 (1a-H77 replicon cells; [1]) [pM] | IC50 (1b (con1) replicon cells; Hepatitis C virus, 48 h) [pM] | IC50 (1a-H77 replicon cells; Hepatitis C virus, 48 h) [pM] | also measured |
| --- | --- | --- | --- | --- | --- |
| COC(=O)N[C@H](C(=O)N1CCC[C@H]1c1nc(-c2cnc(-c3cnc4cc(-c5cnc([C@@H]6CCCN6C(=O)[C@@H](NC(=O)OC)C(C)C)[nH]5)ccc4n3)nc2)c[nH]1)C(C)C [Example 21, Methyl {(2S)-1-[(2S)-2-{5-[2-(5-{2-[(2S)-1-{(2S)-2-[(methoxycarbonyl)amino]-3-methylbutanoyl}pyrrolidin-2-yl]-1H-imidazol-4-yl}pyrimidin-2-yl)quinoxalin-6-yl]-1H-imidazol-2-yl}pyrrolidin-1-yl]-3-methyl-1-oxobutan-2-yl}carbamate] | 222 | 671 | – | – | – |
| COC(=O)N[C@H](C(=O)N1CCC[C@H]1c1nc(-c2cnc(-c3cc4ccc(-c5cnc([C@@H]6CCCN6C(=O)[C@@H](NC(=O)OC)C(C)C)[nH]5)cc4cn3)nc2)c[nH]1)C(C)C [Example 22, Methyl {(2S)-1-[(2S)-2-{4-[2-(7-{2-[(2S)-1-{(2S)-2-[(methoxycarbonyl)amino]-3-methylbutanoyl}pyrrolidin-2-yl]-1H-imidazol-5-yl}isoquinolin-3-yl)pyrimidin-5-yl]-1H-imidazol-2-yl}pyrrolidin-1-yl]-3-methyl-1-oxobutan-2-yl}carbamate] | 152 | 2190 | – | – | – |
| COC(=O)N[C@H](C(=O)N1CCC[C@H]1c1ncc(-c2ccc3cc(-c4cnc(-c5cnc([C@@H]6CCCN6C(=O)[C@@H](NC(=O)OC)C(C)C)[nH]5)cn4)ccc3c2)[nH]1)C(C)C [Example 24, Methyl {(2S)-1-[(2S)-2-{5-[6-(5-{2-[(2S)-1-{(2S)-2-[(methoxycarbonyl)amino]-3-methylbutanoyl}pyrrolidin-2-yl]-1H-imidazol-4-yl}pyrazin-2-yl)naphthalen-2-yl]-1H-imidazol-2-yl}pyrrolidin-1-yl]-3-methyl-1-oxobutan-2-yl}carbamate] | 2010 | 19900 | – | – | – |
| CC[C@H](NC(=O)OC)C(=O)N1CCC[C@H]1c1ncc(-c2ccc3cc(-c4ccc(-c5cnc([C@@H]6CCCN6C(=O)[C@@H](NC(=O)OC)C(C)C)[nH]5)cc4)ccc3c2)[nH]1 [Example 26, Methyl {(2S)-1-[(2S)-2-{5-[4-(6-{2-[(2S)-1-{(2S)-2-[(methoxycarbonyl)amino]butanoyl}pyrrolidin-2-yl]-1H-imidazol-5-yl}naphthalen-2-yl)phenyl]-1H-imidazol-2-yl}pyrrolidin-1-yl]-3-methyl-1-oxobutan-2-yl}carbamate] | 1.92 | 64.1 | – | – | – |
| COC(=O)N[C@H](C(=O)N1CCC[C@H]1c1nc(-c2ccc(-c3cnc4cc(-c5cnc([C@@H]6CCCN6C(=O)CNC(=O)CC(C)C)[nH]5)ccc4n3)cc2)c[nH]1)C(C)C [Example 33, Methyl {(2S)-3-methyl-1-[(2S)-2-(4-{4-[6-(2-{(2S)-1-[N-(3-methylbutanoyl)glycyl]pyrrolidin-2-yl}-1H-imidazol-5-yl)quinoxazolin-2-yl]phenyl}-1H-imidazol-2-yl}pyrrolidin-1-yl]-1-oxobutan-2-yl} carbamate trifluoroacetic acid salt] | – | – | – | – | IC50 (1b (con1) replicon cells; [2]): 32.2 pM; IC50 (1a-H77 replicon cells; [2]): 2590 pM |
| COC(=O)N[C@H](C(=O)N1CCC[C@H]1c1nc(-c2ccc(-c3cnc4cc(-c5cnc([C@@H]6CCCN6C(=O)[C@H](CCC(N)=O)NC(C)=O)[nH]5)ccc4n3)cc2)c[nH]1)C(C)C [Example 34, Methyl {(2S)-1-[(2S)-2-{4-[4-(6-[2-[(2S)-1-(N^2-acetyl-L-glutaminyl)pyrrolidin-2-yl]-1H-imidazol-5-yl}quinoxalin-2-yl)phenyl]-1H-imidazol-2-yl}pyrrolidin-1-yl]-3-methyl-1-oxobutan-2-yl}carbamate trifluoroacetic acid salt] | – | – | 1430 | 5930 | – |
| COC(=O)N[C@H](C(=O)N1CCC[C@H]1c1nc(-c2ccc(-c3cnc4cc(-c5cnc([C@@H]6CCCN6C(=O)CNC(C)=O)[nH]5)ccc4n3)cc2)c[nH]1)C(C)C [Example 35, Methyl {(2S)-1-[(2S)-2-{4-[4-(6-{2-[(2S)-1-(N-acetylglycyl)pyrrolidin-2-yl]-1H-imidazol-5-yl}quinoxalin-2-yl)phenyl]-1H-imidazol-2-yl}pyrrolidin-1-yl]-3-methyl-1-oxobutan-2-yl}carbamate trifluoroacetic acid salt] | – | – | 254 | 2300 | – |
| COC(=O)N[C@H](C(=O)N1CCC[C@H]1c1nc(-c2ccc(-c3cnc4cc(-c5cnc([C@@H]6CCCN6C(=O)CNC(=O)CNC(C)=O)[nH]5)ccc4n3)cc2)c[nH]1)C(C)C [Example 36, Methyl {(2S)-1-[(2S)-2-{4-[4-(6-{2-[(2S)-1-(N-acetylglycylglycyl)pyrrolidin-2-yl]-1H-imidazol-5-yl}quinoxalin-2-yl)phenyl]-1H-imidazol-2-yl}pyrrolidin-1-yl]-3-methyl-1-oxobutan-2-yl}carbamate trifluoroacetic acid salt] | – | – | 1740 | 29800 | – |
| CC[C@@H](NC(C)=O)C(=O)N1CCC[C@H]1c1ncc(-c2ccc3nc(-c4ccc(-c5c[nH]c([C@@H]6CCCN6C(=O)[C@@H](NC(=O)OC)C(C)C)n5)cc4)cnc3c2)[nH]1 [Example 38, Methyl {(2S)-1-[(2S)-2-(4-{4-[6-(2-{(2S)-1-[(2R)-2-(acetylamino)butanoyl]pyrrolidin-2-yl}-1H-imidazol-5-yl)quinoxalin-2-yl]phenyl}-1H-imidazol-2-yl)pyrrolidin-1-yl]-3-methyl-1-oxobutan-2-yl} carbamate trifluoroacetic acid salt] | – | – | – | – | IC50 (1b (con1) replicon cells; [2]): 71.9 pM; IC50 (1a-H77 replicon cells; [2]): 1500 pM |
| CC[C@H](NC(C)=O)C(=O)N1CCC[C@H]1c1ncc(-c2ccc3nc(-c4ccc(-c5c[nH]c([C@@H]6CCCN6C(=O)[C@@H](NC(=O)OC)C(C)C)n5)cc4)cnc3c2)[nH]1 [Example 39, Methyl {(2S)-1-[(2S)-2-(4-{4-[6-(2-{(2S)-1-[(2S)-2-(acetylamino)butanoyl]pyrrolidin-2-yl}-1H-imidazol-5-yl)quinoxalin-2-yl]phenyl}-1H-imidazol-2-yl)pyrrolidin-1-yl]-3-methyl-1-oxobutan-2-yl}carbamate trifluoroacetic acid salt] | – | – | 48.1 | 1240 | – |
| COC(=O)N[C@H](C(=O)N1CCC[C@H]1c1nc(-c2ccc(-c3cnc4cc(-c5cnc([C@@H]6CCCN6C(=O)[C@@H](NC(C)=O)[C@@H](C)O)[nH]5)ccc4n3)cc2)c[nH]1)C(C)C [Example 40, Methyl {(2S)-1-[(2S)-2-{4-[4-(6-{2-[(2S)-1-(N-acetyl-L-threonyl)pyrroldiin-2-yl]-1H-imidazol-5-yl}quinoxalin-2-yl)phenyl]-1H-imidazol-2-yl}pyrrolidin-1-yl]-3-methyl-1-oxobutan-2-yl}carbamate trifluoroacetic acid salt] | – | – | – | – | IC50 (1b (con1) replicon cells; [2]): 55.8 pM; IC50 (1a-H77 replicon cells; [2]): 353 pM |
| COC(=O)N[C@H](C(=O)N1CCC[C@H]1c1nc(-c2ccc(-c3cnc4cc(-c5cnc([C@@H]6CCCN6C(=O)CNC(=O)c6cnc(C)cn6)[nH]5)ccc4n3)cc2)c[nH]1)C(C)C [Example 41, Methyl {(2S)-3-methyl-1-[(2S)-2-{4-[4-(6-{2-[(2S)-1-{N-[(5-methylpyrazin-2-yl)carbonyl]glycyl}pyrrolidin-2-yl]-1H-imidazol-5-yl}quinoxalin-2-yl)phenyl]-1H-imidazol-2-yl}pyrrolidin-1-yl]-1-oxobutan-2-yl}carbamate trifluoroacetic acid salt] | – | – | 128 | 1950 | – |
| COC(=O)N[C@H](C(=O)N1CCC[C@H]1c1nc(-c2ccc(-c3cnc4cc(-c5cnc([C@@H]6CCCN6C(=O)CNC(=O)c6cc(C)on6)[nH]5)ccc4n3)cc2)c[nH]1)C(C)C [Example 42, Methyl {(2S)-3-methyl-1-[(2S)-2-{4-[4-(6-{2-[(2S)-1-{N-[(5-methylisoxazol-3-yl)carbonyl]glycyl}pyrrolidin-2-yl]-1H-imidazol-5-yl}quinoxalin-2-yl)phenyl]-1H-imidazol-2-yl}pyrrolidin-1-yl]-1-oxobutan-2-yl}carbamate trifluoroacetic acid salt] | – | – | 247 | 2870 | – |
